Km data for 1 molecule are collected here from ChEMBL document CHEMBL2073841, “ATP-dependent transport of aflatoxin B1 and its glutathione conjugates by the product of the multidrug resistance protein (MRP) gene” (Mol Pharmacol, 1997).

In this data set the target is MRP1 (Multidrug resistance-associated protein 1) (Homo sapiens, UniProt P33527). In words: TP_TRANSPORTER: uptake in membrane vesicle from MRP1-expressing HeLa cells. It is filed as functional, cell membranes. Particulars: membrane vesicles from MRP1-expressing HeLa cells.
MRP1 (Multidrug resistance-associated protein 1), sequence (P33527 whole entry): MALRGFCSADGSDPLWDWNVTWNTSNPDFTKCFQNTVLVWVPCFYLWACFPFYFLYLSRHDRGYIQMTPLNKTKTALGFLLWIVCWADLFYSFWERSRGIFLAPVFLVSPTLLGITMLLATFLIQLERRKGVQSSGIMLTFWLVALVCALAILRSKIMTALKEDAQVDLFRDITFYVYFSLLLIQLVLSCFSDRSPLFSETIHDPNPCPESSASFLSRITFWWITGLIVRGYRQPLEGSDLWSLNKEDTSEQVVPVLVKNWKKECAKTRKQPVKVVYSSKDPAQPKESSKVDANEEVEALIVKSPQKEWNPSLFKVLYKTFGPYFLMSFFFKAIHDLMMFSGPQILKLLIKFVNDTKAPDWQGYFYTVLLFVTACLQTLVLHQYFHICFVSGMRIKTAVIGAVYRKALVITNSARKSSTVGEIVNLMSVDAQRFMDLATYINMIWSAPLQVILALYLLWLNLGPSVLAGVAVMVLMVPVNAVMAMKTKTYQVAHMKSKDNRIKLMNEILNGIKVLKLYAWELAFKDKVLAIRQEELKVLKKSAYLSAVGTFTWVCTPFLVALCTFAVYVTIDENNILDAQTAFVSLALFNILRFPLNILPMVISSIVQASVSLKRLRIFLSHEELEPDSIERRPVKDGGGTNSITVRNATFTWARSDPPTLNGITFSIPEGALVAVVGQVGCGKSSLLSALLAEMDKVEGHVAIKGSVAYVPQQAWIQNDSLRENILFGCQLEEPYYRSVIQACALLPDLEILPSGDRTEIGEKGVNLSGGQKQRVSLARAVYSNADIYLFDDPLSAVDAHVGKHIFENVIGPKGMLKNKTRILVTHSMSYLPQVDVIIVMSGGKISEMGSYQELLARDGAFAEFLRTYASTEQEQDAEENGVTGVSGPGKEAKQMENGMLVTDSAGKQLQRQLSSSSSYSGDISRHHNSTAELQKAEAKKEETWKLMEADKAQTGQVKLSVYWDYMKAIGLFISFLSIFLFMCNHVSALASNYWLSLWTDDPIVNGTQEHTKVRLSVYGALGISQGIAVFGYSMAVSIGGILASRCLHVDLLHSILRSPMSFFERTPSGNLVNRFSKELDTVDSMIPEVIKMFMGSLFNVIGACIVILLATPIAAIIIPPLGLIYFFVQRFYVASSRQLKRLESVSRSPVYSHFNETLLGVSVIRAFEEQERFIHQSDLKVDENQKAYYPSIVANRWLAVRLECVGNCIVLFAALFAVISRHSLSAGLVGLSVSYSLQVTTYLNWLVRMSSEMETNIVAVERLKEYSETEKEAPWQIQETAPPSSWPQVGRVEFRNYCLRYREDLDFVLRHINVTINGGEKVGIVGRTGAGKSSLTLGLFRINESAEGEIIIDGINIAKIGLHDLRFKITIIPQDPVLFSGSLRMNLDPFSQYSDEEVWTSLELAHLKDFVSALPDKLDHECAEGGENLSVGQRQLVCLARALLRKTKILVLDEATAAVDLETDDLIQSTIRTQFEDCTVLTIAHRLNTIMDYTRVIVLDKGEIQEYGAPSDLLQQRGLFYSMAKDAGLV

Each structure is given as a SMILES string.

For orientation: Km means the substrate concentration at which the rate is half of its maximum.

Regarding `COc1cc2c(c3oc(=O)c4c(c13)CCC4=O)[C@H]1[C@@H](O2)O[C@H](SC[C@@H](NC(=O)CC[C@H](N)C(=O)O)C(=O)NCC(=O)O)[C@H]1O`, the Michaelis-Menten constant (Km) came out at 0.189 µM.
